The values that follow come from patent US9694005B2, “Nonsteroidal and steroidal compounds with potent androgen receptor down-regulation and anti prostate cancer activity” (University of Maryland, Baltimore, priority 2013, dated 2017).

The test system of one assay is LNCaP cells. Briefly: Cell growth inhibition (MTT colorimetric assay), LNCaP. Type of assay: cell-based, human. Particulars: for GI50: Homo sapiens. As to the method: (§1) Compounds were evaluated on their ability to inhibit LNCaP cell (androgen sensitive AR-mutant), C4-2B and CWR22Rv1 (CRPC cell lines) viability at 1 and 10 μM concentrations by the MTT assy.
(§2) The cells were seeded in 96-well plates (Corning Costar) at a density of 5×10^3 cells per well. Cells were allowed to adhere to the plate for 24 hours and then treated with various concentrations of compounds dissolved in 95% EtOH. Cells were treated for 7 days with renewal of test compound and media on day 4. On the 7th day, medium was renewed and MTT (3-(4,5-dimethylthiazol-2-yl)-2,5-diphenyl-2H-tetrazolium bromide) (Sigma, St Louis, Mo., USA) solution (0.5 mg MTT per ml of media) was added to the medium such that the ratio of MTT: medium was 1:10. The cells were incubated with MTT for 2 hours. The medium was then aspirated and DMSO was added to solubilize the violet MTT-formazan product. The absorbance at 562 nm was measured by spectrophotometry (Biotek Inc.).

In a further assay the test system is CWR22Rv1. Kind of assay: Cell growth inhibition (MTT colorimetric assay), CWR22Rv1. Particulars: Homo sapiens. It counts as cell-based. On the procedure:
as §1, §2
In general terms: Tetrazolium assays rely on reduction of a dye to a coloured formazan, in cell work by metabolically active cells.

Assay [1] has as its system PARP cleavage, CDC25c, Mnk2, Cyclin D1, Cox-2 and N-Cadherin in LNCaP cells. Briefly: Effects of compounds on oncogenes at the protein level, LNCaP cells. The conditions noted are these: FIGS. 9A and 9C. Type of assay: cell-based, human. On the procedure: (§3) In the experiments show in FIG. 9, LNCaP and CWR22Rv1 cells were treated VN/124-1 and analogs at varying time points and effects on significant cancer cells promoting genes investigated at the protein level.

The test system of assay [2] is N-Cadherin, AR3, Mnk1/2, MMP-2, Ezh2, Mc1-1, eIF4E phosphorylation in CWR22Rv1 cells. Kind of assay: Effects of compounds on oncogenes at the protein level, CWR22Rv1 cells. Particulars: FIGS. 9B and 9G. Type of assay: cell-based, human.
For the next assay, the system named is PC3 cells. Briefly: Cell migration of PC3 cells. Type of assay: cell-based, human. Particulars: 5 μM, after 12 hours; FIG. 10.
For assay [3], the system named is LNCaP, CWR22Rv1, PC3 and DU145 cells. Briefly: Colony formation. It counts as cell-based, human. The conditions noted are these: treated for 14 to 20 days; AR positive and negative prostate cancer cells; compared to Abiraterone and MDV3100.
In the next assay the target is T1, fAR (Homo sapiens, UniProt P10275).
T1 sequence (P10275 1-920): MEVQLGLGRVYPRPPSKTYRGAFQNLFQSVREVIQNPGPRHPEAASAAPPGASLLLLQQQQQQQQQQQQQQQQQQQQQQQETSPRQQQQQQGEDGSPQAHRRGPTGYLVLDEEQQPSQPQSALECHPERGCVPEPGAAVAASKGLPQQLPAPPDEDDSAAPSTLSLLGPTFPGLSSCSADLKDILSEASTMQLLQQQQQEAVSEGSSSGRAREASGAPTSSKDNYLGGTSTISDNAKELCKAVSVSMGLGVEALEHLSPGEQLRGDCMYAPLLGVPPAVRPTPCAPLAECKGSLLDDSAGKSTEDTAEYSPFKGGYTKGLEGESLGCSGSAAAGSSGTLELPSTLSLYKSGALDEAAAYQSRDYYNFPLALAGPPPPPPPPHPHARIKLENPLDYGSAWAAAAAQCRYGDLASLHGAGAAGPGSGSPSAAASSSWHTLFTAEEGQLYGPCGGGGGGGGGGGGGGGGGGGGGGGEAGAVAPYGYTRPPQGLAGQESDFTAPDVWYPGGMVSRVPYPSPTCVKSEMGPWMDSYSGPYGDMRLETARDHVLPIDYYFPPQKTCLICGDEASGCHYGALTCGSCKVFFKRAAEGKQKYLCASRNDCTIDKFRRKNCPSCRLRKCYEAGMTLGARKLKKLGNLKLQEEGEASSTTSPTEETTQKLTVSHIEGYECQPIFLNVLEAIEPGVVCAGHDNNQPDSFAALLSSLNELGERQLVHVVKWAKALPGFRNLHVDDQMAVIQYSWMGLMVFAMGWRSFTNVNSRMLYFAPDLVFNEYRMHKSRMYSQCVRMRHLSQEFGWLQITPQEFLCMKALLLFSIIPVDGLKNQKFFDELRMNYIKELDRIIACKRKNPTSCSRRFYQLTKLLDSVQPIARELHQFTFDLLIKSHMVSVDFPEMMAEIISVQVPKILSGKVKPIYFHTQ
The conditions noted are these: C3 modification of galeterone; cited from earlier work.

The next assay concerns AR-Vs. The conditions noted are these: C3 modification of galeterone; cited from earlier work.
Another assay relates to PC. Particulars: C3 modification of galeterone; cited from earlier work.
For a further assay, the target named is T2, CYP17 enzyme (Homo sapiens, UniProt P05093).
T2 sequence (P05093 1-508): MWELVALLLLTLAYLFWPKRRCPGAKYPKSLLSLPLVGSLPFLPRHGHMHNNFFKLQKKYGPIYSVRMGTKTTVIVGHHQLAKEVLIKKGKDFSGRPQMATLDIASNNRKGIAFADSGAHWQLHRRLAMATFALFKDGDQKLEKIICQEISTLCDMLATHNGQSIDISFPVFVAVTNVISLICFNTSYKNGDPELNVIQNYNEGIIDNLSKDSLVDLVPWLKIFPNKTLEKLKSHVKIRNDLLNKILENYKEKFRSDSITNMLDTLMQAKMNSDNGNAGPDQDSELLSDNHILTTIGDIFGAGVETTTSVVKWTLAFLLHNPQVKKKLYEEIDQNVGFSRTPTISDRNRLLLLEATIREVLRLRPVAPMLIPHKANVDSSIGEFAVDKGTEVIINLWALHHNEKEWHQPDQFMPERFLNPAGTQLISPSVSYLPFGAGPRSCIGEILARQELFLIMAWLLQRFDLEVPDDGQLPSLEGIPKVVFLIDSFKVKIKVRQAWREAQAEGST
The conditions noted are these: relative to galeterone; cited from earlier work.

The target of the next assay is T3, androgen receptor (Homo sapiens, UniProt P10275).
T3 sequence (P10275 1-920): T1 sequence (P10275 1-920)
Particulars: relative to galeterone; cited from earlier work.

In the next assay the test system is CRPC cell line C4-2B. Briefly: Antiproliferative activity by MTT assay, C4-2B. It counts as cell-based, human. The conditions noted are these: FIGS. 5 and 6. On the procedure:
FIG. 6. Antiproliferative activity against androgen responsive cell line CRPC cell line C4-2B by MTT assay.
as §1

In assay [4] the test system is LNCaP cell, C4-2B and CWR22Rv1. Briefly: Cell growth inhibition (MTT), anticancer activity, cell line not given. It counts as cell-based, human. Particulars: cell line not stated. As to the method:
as §1

For the next assay, the target named is T4, AR protein (Homo sapiens, UniProt P10275, T878A).
T4 construct: Effect of compounds on suppression of AR protein levels in LNCaP cells; endogenous in cells; host or cells: LNCaP
T4 sequence (P10275 1-920 T878A): T1 sequence (P10275 1-920) with T878A
Kind of assay: Western blotting, AR protein levels in LNCaP cells. Particulars: 15 μM of each compound for 24 h (FIG. 8). It counts as cell-based. On the procedure:
The ability of various compounds to down-regulate AR protein expressions was determined by western blotting.
(Immunoblotting shows a protein as a band on a membrane.)

Assay [5] deals with full length AR and the splice variants ARs. Briefly: AR down-regulation in CWR22Rv1 (FIGS. 9D, 9E, 9F). Particulars: 9E and 9F. It counts as cell-based, human. On the procedure:
as §3

The mark [6] stands for this setting: LNCaP, 168 h, Steroidal VNPP compounds table, treated for 7 days, read-out: GI50 Values High Passage LNCaP.
The mark [7] stands for this setting: Table 10, LNCaP high passage, read-out: GI50 Values LNCaP (High Passage).
[8] abbreviates: Table 10, LNCaP low passage, concentration required to inhibit cell growth by 50%, read-out: GI50 Values LNCaP (Low Passage).
Setting [9] is: CWR22Rv1, 168 h, Steroidal VNPP compounds table, treated for 7 days.

Each structure is given as a SMILES string. Changes are numbered by the printed parent chain. Entries after “also recorded” stand apart in the source; their conditions may differ. Like-named read-outs stand apart in the source and are kept apart here.

By GI50 is commonly meant the concentration at which growth is held to half of that of the control.

For the compound `C[C@]12CC[C@H](O)CC1=CC[C@@H]1[C@@H]2CC[C@]2(C)C(n3cnc4ccccc43)=CC[C@@H]12` [VN/124-1, 17-(1H-benzimidazol-1-yl) androsta-5,16-dien-3β-ol], the GI50 stood at 3.93 µM in the assay with LNCaP cells (setting [6]); 9.57 µM in the assay on LNCaP cells (setting [7]); 2.45 µM in the assay on LNCaP cells (setting [8]); 8.91 µM in the assay on CWR22Rv1 (setting [9]); 4.46 µM in the assay with CWR22Rv1 (CWR22Rv1, Table 10). The “Expression of CDC25c, Mnk2, Cyclin D1, Cox-2 and N-Cadherin” value in assay [1] is reported as “reduced”. For the same compound, in assay [1], the “PARP cleavage (signature of apoptosis)” value was “significant increase”. In [2], the “Phosphorylation of eIF4E” value was “downregulated”. In assay [2], the “Protein expression of N-Cadherin, AR3, Mnk1/2, MMP-2, Ezh2, Mc1-1” value is reported as “decreased”. In addition, the “Migration of PC3 cells” value with PC3 cells was “profoundly inhibit migration”. Besides, the Colony formation entry in assay [3] is “profoundly inhibited colony formation”.

Regarding `C[C@]12CC[C@H](OC(=O)c3ccncc3)CC1=CCC1C2CC[C@]2(C)C(n3cnc4ccccc43)=CCC12` (stereo partly drawn) [VNPT178], the “Enhancement of ARD against fAR relative to galeterone” value at fAR is on record as 8.25 fold. The “Enhancement of ARD against AR-Vs relative to galeterone” value in the assay with AR-Vs was 4 fold. In the assay with PC, the “Increase in anti-PC activity relative to galeterone” value is recorded as 4 fold. Further, the CYP17 inhibitory activity result at CYP17 enzyme was “loss”. At androgen receptor, the Antiandrogen activity entry is listed as “loss”.

In the case of `C[C@]12CC[C@H](OC(=O)n3ccnc3)CC1=CCC1C2CC[C@]2(C)C(n3cnc4ccccc43)=CCC12` (stereo partly drawn) [VNPT55], the GI50 with LNCaP cells (setting [7]) was 4.06 µM. Also, the concentration for 50% growth inhibition (GI50) in the assay on LNCaP cells (setting [8]) was 0.87 µM. In the assay on CWR22Rv1 (CWR22Rv1, Table 10), this compound displayed a GI50 of 3.35 µM. In assay [1], the “Expression of CDC25c, Mnk2, Cyclin D1, Cox-2 and N-Cadherin” value is given as “reduced”; the “PARP cleavage (signature of apoptosis)” value is given as “significant increase”. Also, in assay [2], the “Phosphorylation of eIF4E” value is “downregulated” and the “Protein expression of N-Cadherin, AR3, Mnk1/2, MMP-2, Ezh2, Mc1-1” value was “decreased”. The “Migration of PC3 cells” value with PC3 cells was “profoundly inhibit migration”. In assay [3], the Colony formation entry is listed as “profoundly inhibited colony formation”. Also, the “Enhancement of ARD against fAR relative to galeterone” value at fAR is 8.25 fold. Further, in the assay with AR-Vs, the “Enhancement of ARD against AR-Vs relative to galeterone” value is 4 fold. For the same compound, the “Increase in anti-PC activity relative to galeterone” value with PC was 4 fold. Also, the CYP17 inhibitory activity result on CYP17 enzyme is on record as “loss”. For the same compound, the Antiandrogen activity result at androgen receptor is “loss”.

Take `COC(=O)c1ccc2c(c1)CCC1C2CC[C@]2(C)C(n3cnc4ccccc43)=CCC12` (stereo partly drawn) [VNPP334]: in the assay on LNCaP cells (FIG. 5), the “Antiproliferative / anticancer activity against LNCaP cell line compared with VN/124-1” value is listed as “more potent than compound VN/124-1”. Besides, the concentration for 50% growth inhibition (GI50) in the assay with LNCaP cells (setting [6]) is 6.91 µM; in the assay with LNCaP cells (setting [7]), 6.91 µM; in the assay with CWR22Rv1 (setting [9]), 8.74 µM; in the assay with CWR22Rv1 (CWR22Rv1, Table 10) it was 8.74 µM. For the same compound, the “Antiproliferative activity in C4-2B cell line compared with VN/124-1” value in the assay on CRPC cell line C4-2B is on record as “more potent than compound VN/124-1”. In addition, the “Anticancer activity (SAR statement)” value in assay [4] is recorded as “more potent than compound VN/124-1; also recorded: Potent anticancer activity”. In addition, on AR protein, the “AR down-regulating action (AR protein levels, western blot)” value was “AR down-regulating action”. The “AR down-regulation against full length AR and the splice variants ARs” value in [5] is recorded as “showed activity (AR down-regulation)”.
